Measurements reported in the supplement of paper PMC10307832.

Assays:
Test in all cases: relative viability (nuclei count vs DMSO), 5 days (fraction); higher = more cells survive
Vismodegib + Vorinostat = compound: CS(=O)(=O)c1ccc(C(=O)Nc2ccc(Cl)c(-c3ccccn3)c2)c(Cl)c1 [Vismodegib] + O=C(CCCCCCC(=O)Nc1ccccc1)NO [Vorinostat] (partner 1 µM)
Summary of the method: (§1)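 Nuclei were stained with Hoechst during a one-step fixation (final 0.05% Triton X-100, 1% formaldehyde, 1 ug/ml Hoechst) carried out 5 days after dosing, then counted on 4× images. The cells, lung cancer lines in 1536-well plates, had been dosed by pin tool the day after seeding with one drug alone or a fixed anchor-drug dose plus five library-drug doses (not always all listed) in √10 steps. Relative viability is the nuclei count in treated wells divided by that in vehicle wells, and each value is the median of duplicate plates.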

Ruxolitinib + Tozasertib = compound: N#CC[C@H](C1CCCC1)n1cc(-c2ncnc3[nH]ccc23)cn1 [Ruxolitinib] + Cc1cc(Nc2cc(N3CCN(C)CC3)nc(Sc3ccc(NC(=O)C4CC4)cc3)n2)n[nH]1 [Tozasertib] (partner 0.1 µM)
Summary of the method: as §1

Ruxolitinib + Dasatinib = compound: N#CC[C@H](C1CCCC1)n1cc(-c2ncnc3[nH]ccc23)cn1 [Ruxolitinib] + Cc1nc(Nc2ncc(C(=O)Nc3c(C)cccc3Cl)s2)cc(N2CCN(CCO)CC2)n1 [Dasatinib] (partner 0.075 µM)
Summary of the method: as §1

Vismodegib + Alpelisib = compound: CS(=O)(=O)c1ccc(C(=O)Nc2ccc(Cl)c(-c3ccccn3)c2)c(Cl)c1 [Vismodegib] + Cc1nc(NC(=O)N2CCC[C@H]2C(N)=O)sc1-c1ccnc(C(C)(C)C(F)(F)F)c1 [Alpelisib] (partner 2 µM)
Summary of the method: as §1

| Cell Line | relative viability (Vismodegib + Vorinostat; first compound 0.08 µM) | relative viability (Vismodegib + Vorinostat; first compound 0.253 µM) | relative viability (Vismodegib + Vorinostat; first compound 0.8 µM) | relative viability (Vismodegib + Vorinostat; first compound 2.53 µM) | relative viability (Vismodegib + Vorinostat; first compound 8 µM) | relative viability (Ruxolitinib + Tozasertib; first compound 0.253 µM) | relative viability (Ruxolitinib + Tozasertib; first compound 0.8 µM) | relative viability (Ruxolitinib + Tozasertib; first compound 2.53 µM) | relative viability (Ruxolitinib + Tozasertib; first compound 8 µM) | relative viability (Ruxolitinib + Dasatinib; first compound 0.253 µM) | relative viability (Ruxolitinib + Dasatinib; first compound 0.8 µM) | relative viability (Ruxolitinib + Dasatinib; first compound 2.53 µM) | relative viability (Ruxolitinib + Dasatinib; first compound 8 µM) | relative viability (Vismodegib + Alpelisib; first compound 0.08 µM) | relative viability (Vismodegib + Alpelisib; first compound 0.253 µM) | relative viability (Vismodegib + Alpelisib; first compound 0.8 µM) | relative viability (Vismodegib + Alpelisib; first compound 2.53 µM) | relative viability (Vismodegib + Alpelisib; first compound 8 µM) | relative viability (Ruxolitinib + Tozasertib; first compound 0.08 µM) | relative viability (Ruxolitinib + Dasatinib; first compound 0.08 µM) |
| --- | --- | --- | --- | --- | --- | --- | --- | --- | --- | --- | --- | --- | --- | --- | --- | --- | --- | --- | --- | --- |
| LOU-NH91 | 0.884 | 0.899 | 0.793 | 0.845 | 0.885 | 0.627 | 0.744 | 0.65 | 0.632 | 0.461 | 0.556 | 0.496 | 0.439 | 0.693 | 0.782 | 0.699 | 0.695 | 0.755 |  |  |
| ABC-1 | 1.55 | 0.987 | 0.873 | 1.23 | 1.24 | 0.222 | 0.155 | 0.202 | 0.201 | 0.53 | 0.547 | 0.64 | 0.45 | 0.994 | 1.13 | 1.08 | 0.83 | 0.949 |  |  |
| RERF-LC-KJ | 0.669 | 0.603 | 0.78 | 0.772 | 0.659 | 0.492 | 0.555 | 0.495 | 0.384 | 0.742 | 0.942 | 0.737 | 0.635 | 0.789 | 0.748 | 0.909 | 0.748 | 0.773 | 0.401 | 0.886 |
| NCI-H1975 | 0.63 | 0.683 | 0.738 | 0.744 | 0.687 | 0.78 | 0.682 | 0.767 | 0.389 | 0.374 | 0.357 | 0.363 | 0.227 | 0.621 | 0.649 | 0.617 | 0.611 | 0.721 | 0.724 | 0.387 |
| SK-MES-1 | 1.11 | 0.981 | 1.07 | 0.973 | 1.06 | 0.873 | 0.906 | 0.768 | 0.735 | 0.372 | 0.315 | 0.199 | 0.285 | 0.851 | 0.956 | 0.802 | 0.827 | 0.837 | 1.01 | 0.313 |
| NCI-H2170 | 0.83 | 0.712 | 0.824 | 0.815 | 0.838 | 0.689 | 0.768 | 0.77 | 0.6 | 0.681 | 0.627 | 0.599 | 0.483 | 0.836 | 0.814 | 0.872 | 0.836 | 0.794 | 0.804 | 0.691 |
| NCI-H661 | 0.785 | 0.768 | 0.841 | 0.737 | 0.763 | 0.354 | 0.365 | 0.363 | 0.352 | 0.872 | 1.03 | 0.695 | 0.498 | 0.263 | 0.701 | 0.71 | 0.595 | 0.84 | 0.358 | 0.964 |
| HOP-62 | 0.681 | 0.591 | 0.535 | 0.58 | 0.469 | 0.394 | 0.415 | 0.402 | 0.348 | 0.588 | 0.739 | 0.557 | 0.342 | 0.92 | 0.906 | 0.978 | 0.919 | 1.12 | 0.345 | 0.698 |
| HCC-15 | 0.844 | 0.774 | 0.86 | 0.781 | 0.859 | 0.434 | 0.519 | 0.481 | 0.421 | 0.492 | 0.675 | 0.439 | 0.286 | 0.894 | 0.822 | 0.871 | 0.866 | 0.83 | 0.406 | 0.661 |
| A-427 | 0.923 | 0.862 | 0.814 | 0.872 | 0.84 | 0.201 | 0.237 | 0.184 | 0.179 | 0.751 | 0.66 | 0.441 | 0.463 | 1.02 | 1.04 | 0.965 | 1.09 | 1.1 | 0.232 | 0.74 |
